In patent publication US11591604B2, “Gene expression in Bacteroides” (Massachusetts Institute of Technology, priority 2015, dated 2023):
Where two headings read alike, the source gives them in different places.

How the values were obtained:
B. thetaiotaomicron = test: Minimum inhibitory concentration of polymyxin B with CRISPRi against BT1854; type: cell-based
Excerpt: FIGS. 4A-4F. CRISPRi-mediated repression of recombinant and endogenous genes. (FIG. 4A) Schematic of dCas9-based repression of NanoLuc. LacI^Q is expressed from PBT1311 and represses transcription from the PLacO23 promoter. Addition of IPTG inactivates LacI^Q to allow expression of dCas9 from PLacO23 dCas9 complexes with guide RNA (sgRNA) constitutively expressed from the P1 promoter to prevent the transcription of NanoLuc from the PcfiA promoter. Guide RNAs were designed to target the coding sequence of NanoLuc (NL1-4) or the PcfiA promoter (PR1-2). (FIG. 4B) Response curves of dCas9-mediated targeting the coding sequence of NanoLuc (NL1-4), the promoter (PR1-2) or a nonsense sequence (NS). Fourfold serial dilutions of IPTG starting at 500 μM or no inducer were added to cultures. Response curves were fit to a Hill Function (solid lines). (FIG. 4C) Fold repression elicited by various gRNAs in the presence (500 μM) of inducer. Bars are colored to correspond to part B. (FIG. 4D) Genomic location of endogenous genes targeted using CRISPRi. […]
Resistance to inflammation-associated cationic antimicrobial peptides, such as polymyxin B, is essential for the stability of commensal organisms in the dynamic gut environment. […] Using the minimum inhibitory concentration (MIC) of polymyxin B as a phenotypic readout, an sgRNA was designed to specifically suppress BT1854 expression.

NanoLuc [1] = test: NanoLuc luciferase reporter expression from constitutive promoters and RBSs integrated with pNBU2; type: cell-based, B. thetaiotaomicron; settings: for Average Luminescence (RLU/CFU): RBS combined with promoter PBT1311, NanoLuc reporter, three biological replicates
NanoLuc [2] = test: Response curves of inducible promoters driving NanoLuc; type: cell-based, B. thetaiotaomicron; settings: for change in gene expression on induction: IPTG induction
Description: FIGS. 2A-2E. Design and characterization of genetic sensors. (FIGS. 2A-2D) Response curves for NanoLuc under the regulated control of the rhamnose—(Rha) (FIG. 2A), chondroitin sulfate—(ChS) (FIG. 2B), arabinogalactan—(AG) (FIG. 2C), or IPTG—(FIG. 2D) inducible promoters. LacO1 operator sites were inserted in various regions (O1, O2, O3) of the PcfxA promoter (see also FIGS. 7A-7B). Inducer concentrations were applied as follows: three-fold serial dilutions starting at 10 mM Rha (FIG. 2A); three-fold serial dilutions starting at 0.4% for ChS (FIG. 2B) and AG (FIG. 2C); and four-fold serial dilutions starting at 500 μM for IPTG (FIG. 2D). The leftmost data point in each plot represents the background luminescence in the absence of inducer. Response curves were fit to a Hill function (solid lines). (FIG. 2E) Orthogonality matrix of sugar-inducible genetic systems incubated with 10 mM rhamnose (Rha), 0.2% chondroitin sulfate (ChS), 0.2% arabinogalactan (AG), or 100 mM IPTG compared to no inducer. Error bars represent the standard deviation of three biological replicates made on different days.
FIGS. 7A-7B. Synthetic IPTG-inducible promoters. (FIG. 7A) Synthetic IPTG-inducible promoters were constructed by placing LacO1 operator sites (red) upstream of the −33 element (O1), between the −33 and −7 elements (O2) and/or directly downstream of the transcription start site (O3) of the strong PcfxA promoter. Predicted −33, −7 and +1 sites are shown in bold. These promoters are regulated by the E. coli LacIQ repressor expressed from PBT1311. FIG. 7A depicts SEQ ID NOs: 217 to 220 from top to bottom, respectively. (FIG. 7B) Response curves for the synthetic IPTG-inducible systems. Cells were incubated with no inducer or four-fold serial dilutions of IPTG starting at 500 μM. Data sets for PLacO13 and PLacO23 were fit to a Hill function (solid line). Error bars represent the standard deviation of three biological replicates made on three different days (n=3).
To create inducible systems for use in B. thetaiotaomicron, parts from a large repertoire of systems that govern carbohydrate utilization were used, which included cytoplasmic transcription factors, extracytoplasmic function sigma/anti-sigma pairs, and hybrid two-component systems (HTCS), among others (64). In B. thetaiotaomicron, rhamnose metabolism is mediated by the AraC/XylS-family transcriptional activator, RhaR, which activates transcription at the PBT3763 promoter (Patel E H, et al. Res. Microbiol. 159:678-84, 2008). To assay the functionality of PBT3763 as an inducible system, 250 bp of the promoter-RBS region was cloned upstream of the start codon of BT3763 into the pNBU2 expression vector to drive expression of NanoLuc.
Two-component systems are signal-transduction mechanisms widespread in bacteria for sensing external stimuli. […] Putative HTCSs, BT3334 and BT0267, were identified in transcriptomic studies to control expression of the chondroitin sulfate (ChS)-inducible PBT3324 promoter and arabinogalactan (AG)-inducible PBT0268 promoter, respectively (64, 83). The promoter regions upstream of the BT3324 and BT0268 genes were used as the basis for two polysaccharide sensors. Chondroitin sulfate induction of PBT3324 and arabinogalactan induction PBT0268 led to a 60-fold and 29-fold regulation of output gene expression, respectively (FIGS. 2B and 2C).
Next, an IPTG-inducible system was developed. Pairs of LacO1 operator sites were inserted in the strong PcfxA promoter in three locations: upstream of the −33 element (O1), between the −33 and −7 elements (O2) or just downstream of the transcription start site (O3) (FIGS. 7A-7B). The LacI^Q repressor was expressed from the strong BT1311 promoter to achieve tight control of NanoLuc expression. Compared to the unmodified PcfxA promoter, the addition of synthetic operator sites diminished the maximum expression of NanoLuc (FIGS. 7A-7B). […]

[3] = IPTG inducer, LacIQ expressed from BT1311 promoter, read-out: threshold K

polymyxin B
decrease in MIC compared to WT and dCas9NS control (B. thetaiotaomicron; dCas9BT1854 cells, dCas9 induced with IPTG): 8 to 16 fold
polymyxin B resistance (B. thetaiotaomicron; dCas9NS strains, presence or absence of IPTG induction, similar to WT): high levels of polymyxin B resistance

A31: RBS, SEQ ID NO: 103 (DNA TCCCGCATTTTAAAATAAAATAAATTATTGGTTTATTTAAACGAAT; chemistry not fully specified)
Average Luminescence (RLU/CFU) (NanoLuc [1]): 0.005462 RLU/CFU

C30: RBS, SEQ ID NO: 88 (DNA TCCCGCATTTTAAAATAAAATAAATTATTTATTTATTTAAACGAAT; chemistry not fully specified)
Average Luminescence (RLU/CFU) (NanoLuc [1]): 0.008085 RLU/CFU

C24: RBS, SEQ ID NO: 67 (DNA TCCCGCATTTTAAAATAAAATAAATTATTTCTTTATTTAAACGAAT; chemistry not fully specified)
Average Luminescence (RLU/CFU) (NanoLuc [1]): 0.01287 RLU/CFU

B31: RBS, SEQ ID NO: 85 (DNA TCCCGCATTTTAAAATAAAATAAATGATCTAGTTAATTAAACGAAT; chemistry not fully specified)
Average Luminescence (RLU/CFU) (NanoLuc [1]): 0.008534 RLU/CFU

A21: RBS, SEQ ID NO: 73 (DNA TCCCGCATTTTAAAATAAAATAAATTATTTATTTACTTAAACGAAT; chemistry not fully specified)
Average Luminescence (RLU/CFU) (NanoLuc [1]): 0.01018 RLU/CFU

B6: RBS, SEQ ID NO: 6 (DNA TCCCGCATTTTAAAATAAAATAAATAATATACTTAATTAAACGAAT; chemistry not fully specified)
Average Luminescence (RLU/CFU) (NanoLuc [1]): 0.04723 RLU/CFU

C53: RBS, SEQ ID NO: 140 (DNA TCCCGCATTTTAAAATAAAATAAATTATTCGTTTAATTAAACGAAT; chemistry not fully specified)
Average Luminescence (RLU/CFU) (NanoLuc [1]): 7.299E-05 RLU/CFU
Expression Level (RLU/CFU) (NanoLuc [1]; set of 8 RBSs, under control of PBT1311, NanoLuc reporter): 7.30E-05 RLU/CFU

B26: RBS, SEQ ID NO: 68 (DNA TCCCGCATTTTAAAATAAAATAAATTATTTAGTTAATTAAACGAAT; chemistry not fully specified)
Average Luminescence (RLU/CFU) (NanoLuc [1]): 0.01271 RLU/CFU

B35: RBS, SEQ ID NO: 105 (DNA TCCCGCATTTTAAAATAAAATAAATCATGTACTTAATTAAACGAAT; chemistry not fully specified)
Average Luminescence (RLU/CFU) (NanoLuc [1]): 0.005272 RLU/CFU

B24: RBS, SEQ ID NO: 62 (DNA TCCCGCATTTTAAAATAAAATAAATCATTTATTTAATTAAACGAAT; chemistry not fully specified)
Average Luminescence (RLU/CFU) (NanoLuc [1]): 0.01427 RLU/CFU

C20: RBS, SEQ ID NO: 51 (DNA TCCCGCATTTTAAAATAAAATAAATTATTGTTTTAGTTAAACGAAT; chemistry not fully specified)
Average Luminescence (RLU/CFU) (NanoLuc [1]): 0.01758 RLU/CFU

C55: RBS, SEQ ID NO: 142 (DNA TCCCGCATTTTAAAATAAAATAAATTATTCGTTTACTTAAACGAAT; chemistry not fully specified)
Average Luminescence (RLU/CFU) (NanoLuc [1]): 2.628E-05 RLU/CFU

C54: RBS, SEQ ID NO: 141 (DNA TCCCGCATTTTAAAATAAAATAAATTATTCGTTTATTTAAACGAAT; chemistry not fully specified)
Average Luminescence (RLU/CFU) (NanoLuc [1]): 3.651E-05 RLU/CFU

C8: RBS, SEQ ID NO: 21 (DNA TCCCGCATTTTAAAATAAAATAAATTATTTATCGAATTAAACGAAT; chemistry not fully specified)
Average Luminescence (RLU/CFU) (NanoLuc [1]): 0.03132 RLU/CFU

B1: PLacO13: Synthetic IPTG-inducible promoter + RBS, SEQ ID NO: 148 (nucleic acid)
DNA: TTACAAAGAAAATTCGACAAACTGTTATTTTTCTATCTATTTAAATTGTGAGCGGATAACAATTTGGGTGGGAAACTTTAGTTATGTACCTTTGTCGGCAATTGTGAGCGGATAACAATTAAATAAAGATATTCTCGTCAAACAAATATAAATAATATAAAC
EC50 (NanoLuc [2]; [3]): 86 µM
change in gene expression on induction (NanoLuc [2]): 8 fold

B2: PBT3763: Rhamnose inducible promoter + RBS, SEQ ID NO: 144 (nucleic acid)
DNA: TATTTCGGAGAAAACATGCATAAATCATGCTTTTTTTGCATAAAAAGTAAAATTTATACTGATGTAAGGTTTGGCTATGCAGATTTGTGTCAAAATGCACATCCTTTCTATCAAAATGCGTAAGGAAAAGGAGGAAGGAACCGCCTATCTTTGCAATGTAGGTAAATGGATACCTTAAATATATAGACAAAATACC
Hill coefficient n (NanoLuc [2]; rhamnose inducer): 1.4
EC50 (NanoLuc [2]; rhamnose inducer, read-out: threshold K (Hill function fit)): 300 µM
output dynamic range (NanoLuc [2]; rhamnose induction, NanoLuc): 104 fold

B3: PBT3324: Chondroitin-sulfate inducible promoter + RBS, SEQ ID NO: 145 (nucleic acid)
DNA: TATTTATAAGAGATAGCACATAATTTGAACTATTTTGTACGATTTGAACCCCTCTTTCCAACAAAAGAGGGGTTTCTTTGCATTCGGGAGAAGAACAAGTGATCTCTCTCTGTAAATACCGGCTAATGATAAACCGATTTACCATCGGACCTAAAACGATATATTCTATGATAAAGCAATCTTTTACTCTGTCAGTGACA
regulation of output gene expression (NanoLuc [2]; chondroitin sulfate induction): 60 fold

B4: PLacO23: Synthetic IPTG-inducible promoter + RBS, SEQ ID NO: 149 (nucleic acid)
DNA: TTACAAAGAAAATTCGACAAACTGTTATTTTTCTATCTATTTATTTGAATTGTGAGCGGATAACAATTACCTTTGTCGGCAATTGTGAGCGGATAACAATTAAATAAAGATATTCTCGTCAAACAAATATAAATAATATAAAC
EC50 (NanoLuc [2]; [3]): 6 µM
change in gene expression on induction (NanoLuc [2]): 22 fold
